Measurements as given in patent US20240002326A1, “COMPOUNDS AND USE THEREOF IN METHODS OF TREATMENT” (The University of Queensland, priority 2016, published 2024).

Key:
full-length mouse SOX18 = full-length mouse SOX18 (Mus musculus (Mouse), UniProt P43680); assay: FP DNA-binding competition assay, full-length SOX18; details: full-length mouse SOX18, Prox1-DNA probe, read-out: FP IC50 ± SD
Experimental: Full-length mouse SOX18. A N-terminally tagged mouse HIS-GST-SOX18 was recombinantly expressed in Sf9 cells, purified on GST resin (GE Healthcare Life Sciences, Sweden) and eluted in Tris buffer (50 mM Tris, 500 mM NaCl, 10 mM reduced glutathione, pH 8.0). cDNA clone of mouse Sox18 was PCR amplified and cloned into the pOPIN-GST vector, to generate N-terminally tagged HIS-GST-SOX18. A sequence verified construct was co-transfected with flashBACULTRA (Oxford Expression Technologies, Oxford, United Kingdom) baculovirus DNA onto Spodoptera frugiperda Sf9 cells to obtain recombinantly expressed HIS-GST-SOX18. High Five cells (BTI-TN-5B1-4) in Sf-900™ II serum-free medium were infected at cell density of 1.5×10^6 cells/mL with a multiplicity of infection (MOI) of 5 PFU/cell, and incubated at 21° C. for 144 h before harvest. The cell pellet from 100 mL of expression culture was resuspended in 30 mL of phosphate lysis buffer (50 mM sodium phosphate, 500 mM sodium chloride, 1% Triton X-100, 2 mM magnesium chloride, one tablet of cOmplete Protease Inhibitor Cocktail, pH 7.5) and sonicated on ice for 20 s. The cell lysate was centrifuged at 17,000×g for 40 min at 4° C. Supernatant was incubated with Benzonase Nuclease (Merck Millipore) for 1 h at room temperature for DNA degradation, before being mixed with 500 μL GST resin (GE Healthcare Life Sciences, Sweden) and incubated on a rotating wheel at room temperature for 1 h. The sample was centrifuged at 500×g for 1 min to remove unbound protein in the supernatant. The resin was further washed with 50 resin volumes (RV) wash buffer (50 mM sodium phosphate, 500 mM NaCl, pH 7.5), with unbound protein removed by centrifugation as above. Bound protein was eluted from the resin with 3×1 RV elution buffer (50 mM Tris, 500 mM NaCl, 10 mM reduced glutathione, pH 8.0), collecting the supernatant by centrifugation as above.
The DNA-binding competition assay was performed in black 384-well plates, with mouse full length SOX18, or SOX-HMG fragments. All experiments were performed using a fluorescently-labelled Prox1-DNA element. Controls consisted of free labelled DNA (low FP milli-Polarization index, mP), labelled DNA in presence of protein (negative control, high mP), and labelled DNA and protein in presence of competing excess of unlabelled DNA (positive control, low mP)
The DNA-binding competition assay was performed in 25 uL, in black 384-well plates, using either 30 mM HEPES (N-2-Hydroxyethylpiperazine-N′-2-Ethanesulfonic Acid) (pH 7.5, with 100 mM KCl, 40 mM NaCl, 10 mM NH4OAc, […], 2 mM MgCl2, 0.5 mM EDTA, 0.01% NP-40) for mouse full length SOX18, or Tris-NaCl (10 mM Tris pH 8.0 and 100 mM NaCl) for SOX-HMG fragments. All experiments were performed using a 40 bp double-stranded Prox1-DNA element with 5′ fluorescein amidite (FAM) label (Sigma Proligo or InVitrogen). Optimum binding levels were obtained at 200 nM of mouse full length SOX18 and 60 nM of SOX-HMG fragment, in presence of 5 nM labelled DNA. Controls consisted of free labelled DNA (low FP milli-Polarization index, mP), labelled DNA in presence of protein (negative control, high mP), and labelled DNA and protein in presence of 400 time competing excess of unlabelled DNA (positive control, low mP). Depending on compound, final DMSO concentrations ranged from 2 to 3.33% v/v. After mixing protein, DNA probe and compound, plates were sealed and briskly agitated in the dark for 5 minutes at room temperature, 10 minutes at 37° C., and 30 minutes at room temperature, before reading fluorescence polarization on a Tecan M1000Pro (λexc=485 nm, λem=525 nm). All experiments were performed in triplicates.

[1] = Cytotoxicity assay (Alamar blue), COS-7; assay type: cell-based, Monkey; details: chlorocebus aethiops, COS-7 cells; COS7, 24 h; read-out: In vitro cytotoxicity CC50 ± SD COS7
Experimental: Cell toxicity was determined using Alamar blue, as previously described (McMillian et al., 2002). COS-7 cells were seeded as 7000 cells per well in black wall clear bottom 96-well plates in DMEM medium (Life Technologies Australia) with 10% FBS. HepG2 and HEK293 cell lines, from ATCC, were seeded as 5000 cells per well in black wall clear bottom 384-well cell culture plates in DMEM with 1% FBS. Cells were cultured for 24 h at 37° C., 5% CO2. A serial dilution of compounds was added, with a final DMSO concentration adjusted to 0.5% v/v. Cells were incubated for another 24 h. 1 Triton X-100 was used as negative control, and 0.5% DMSO as positive control. 5 μM Alamar blue was added to each well and fluorescence was measured (λexc=560 nm, λem=590 nm) after 2 h incubation at 37° C. Data were analysed using Prism software.

[2] = test system: 4T1.2 mammary carcinoma cells; assay: 4T1.2 mammary carcinoma mouse model of breast cancer metastasis; assay type: in vivo, BALB/c mice; details: 25 mg/kg/day oral, day 3 to day 12
SOX18 = SOX18 (Mus musculus (Mouse), UniProt P43680); assay: Cell-based luciferase SOX18-dependent transactivation (Vcam1 promoter) in COS-7; details: COS7, 24 h, read-out: In vitro efficacy in cell IC50 ± SD COS7 (Luc)
SOX18, sequence (P43680 whole entry): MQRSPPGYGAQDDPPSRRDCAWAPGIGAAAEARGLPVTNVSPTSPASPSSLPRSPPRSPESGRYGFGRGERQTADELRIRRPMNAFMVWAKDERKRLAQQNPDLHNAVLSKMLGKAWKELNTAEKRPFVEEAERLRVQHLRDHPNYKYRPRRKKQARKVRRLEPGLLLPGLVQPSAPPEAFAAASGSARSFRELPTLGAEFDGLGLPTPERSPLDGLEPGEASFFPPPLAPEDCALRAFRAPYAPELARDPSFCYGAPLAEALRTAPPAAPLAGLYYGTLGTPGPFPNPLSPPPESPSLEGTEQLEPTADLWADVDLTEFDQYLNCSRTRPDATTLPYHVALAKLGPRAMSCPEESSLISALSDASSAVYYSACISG
Experimental: Monkey kidney fibroblast-like cells (COS-7) were cultured at 37° C., 5% CO2 in DMEM (Life technologies, 11995) with FBS, sodium pyruvate, L-glutamine, penicillin, streptomycin, non-essential amino acids and HEPES. Cells were grown in 96-well plates to 80% confluency, and transfected with mouse plasmids pGL2 Vcam 1 promoter construct (VC1889) and pSG5 Sox18, using X-tremeGENE 9 DNA transfection reagent (Roche, 06365787001) (Hosking et al., 2004, Duong et al., 2014). After 4-6 h transfection, cells were incubated with compounds in 0.5% FBS medium for another 24 h, before lysis and luciferase assay (Perkin Elmer, 6016711).

full-length mouse SOX18, sequence (P43680 whole entry): as above

Row | SMILES | IC50 (full-length mouse SOX18) | CC50 at 24 h [1] | median latency (survival) [2] | IC50 (SOX18)
1 | Cc1ccc(Cl)c(Nc2ccccc2C(=O)O)c1Cl [Meclofenamic acid, reference compound] | 163 ± 17.7 µM | 16 ± 0.3 µM | – | –
2 | CC(=O)Oc1ccccc1C(=O)O [Aspirin] | – | – | 34 days | –
3 | O=C(O)c1cccnc1Nc1cccc(C(F)(F)F)c1 [Nifumic acid, niflumic acid, reference compound] | 375 ± 84 µM | > 200 µM | – | 50.5 ± 7.6 µM
